Experimental data taken from ChEMBL document CHEMBL4800729 (2021).

How the values were obtained:
[1] = biological target: Monoamine oxidase A (MAO-A) (Homo sapiens, UniProt P21397); assay: Inhibition of Monoamine Oxidase MAO-A at compound concentration of 10.0 uM in the Eurofins-Panlabs enzyme assay (Eurofins_assay_140010); parameters: substrate with concentration 50 uM Kynuramine, incubation time 60 min, incubation temperature 37 C; conditions: recombinant human MAO-A expressed in insect Hi5 cells, probe Kynuramine (50 uM), compound concentration 10 uM
[2] = biological target: Phosphodiesterase 3 (Homo sapiens) (UniProt Q14432+Q13370); assay: Inhibition of Phosphodiesterase PDE3 at compound concentration of 10.0 uM in the Eurofins-Panlabs enzyme assay (Eurofins_assay_152000); assay type: protein assay; parameters: substrate with concentration 1.01 uM [3H] cAMP + cAMP, incubation time 20 min, incubation temperature 25 C; conditions: Compound concentration 10.0 uM
[3] = biological target: Activin receptor type-1B (Homo sapiens) (UniProt P36896); assay: Alk4(h) Millipore kinase panel; conditions: Compound concentration 1.0 uM
[4] = biological target: Tyrosine-protein kinase BTK (Homo sapiens) (UniProt Q06187); assay: BTK(h) Millipore kinase panel; conditions: Compound concentration 1.0 uM
[5] = biological target: Calcium/calmodulin-dependent protein kinase type 1B (Homo sapiens) (UniProt Q6P2M8); assay: CaMKIbeta(h) Millipore kinase panel; conditions: Compound concentration 1.0 uM
[6] = biological target: Calcium/calmodulin-dependent protein kinase kinase 1 (Homo sapiens) (UniProt Q8N5S9); assay: CaMKK1(h) Millipore kinase panel; conditions: Compound concentration 1.0 uM
Homo sapiens = species: Homo sapiens; assay: Cdc7/cyclinB(h) Millipore kinase panel; conditions: Compound concentration 1.0 uM
[7] = biological target: Cyclin-dependent kinase 5/CDK5 activator 1 (Homo sapiens) (UniProt Q00535+Q15078); assay: CDK5/p35(h) Millipore kinase panel; assay type: protein-complex assay; conditions: Compound concentration 1.0 uM
[8] = biological target: Serine/threonine-protein kinase Chk1 (Homo sapiens) (UniProt O14757); assay: CHK1(h) Millipore kinase panel; conditions: Compound concentration 1.0 uM
[9] = biological target: Casein kinase I isoform gamma-1 (Homo sapiens) (UniProt Q9HCP0); assay: CK1gamma1(h) Millipore kinase panel; conditions: Compound concentration 1.0 uM
[10] = biological target: Epidermal growth factor receptor (Homo sapiens) (UniProt P00533); assay: EGFR(h) Millipore kinase panel; conditions: Compound concentration 1.0 uM
[11] = biological target: Tyrosine-protein kinase HCK (Homo sapiens) (UniProt P08631); assay: Hck(h) activated Millipore kinase panel; conditions: Compound concentration 1.0 uM
[12] = biological target: Homeodomain-interacting protein kinase 1 (Homo sapiens) (UniProt Q86Z02); assay: HIPK1(h) Millipore kinase panel; conditions: Compound concentration 1.0 uM
[13] = biological target: Eukaryotic translation initiation factor 2-alpha kinase 1 (Homo sapiens) (UniProt Q9BQI3); assay: HRI(h) Millipore kinase panel; conditions: Compound concentration 1.0 uM
[14] = biological target: LIM domain kinase 2 (Homo sapiens) (UniProt P53671); assay: LIMK2(h) Millipore kinase panel; conditions: Compound concentration 1.0 uM
[15] = biological target: Mitogen-activated protein kinase kinase kinase kinase 3 (Homo sapiens) (UniProt Q8IVH8); assay: MAP4K3(h) Millipore kinase panel; conditions: Compound concentration 1.0 uM
[16] = biological target: MAP/microtubule affinity-regulating kinase 4 (Homo sapiens) (UniProt Q96L34); assay: MARK4(h) Millipore kinase panel; conditions: Compound concentration 1.0 uM
[17] = biological target: Mitogen-activated protein kinase kinase kinase 2 (Homo sapiens) (UniProt Q9Y2U5); assay: MEKK2(h) Millipore kinase panel; conditions: Compound concentration 1.0 uM
[18] = biological target: Serine/threonine-protein kinase 3 (Homo sapiens) (UniProt Q13188); assay: MST2(h) Millipore kinase panel; conditions: Compound concentration 1.0 uM
[19] = biological target: Serine/threonine-protein kinase Nek1 (Homo sapiens) (UniProt Q96PY6); assay: NEK1(h) Millipore kinase panel; conditions: Compound concentration 1.0 uM
[20] = biological target: Serine/threonine-protein kinase Nek3 (Homo sapiens) (UniProt P51956); assay: NEK3(h) Millipore kinase panel; conditions: Compound concentration 1.0 uM
[21] = biological target: Ribosomal protein S6 kinase beta-1 (Homo sapiens) (UniProt P23443); assay: p70S6K(h) Millipore kinase panel; conditions: Compound concentration 1.0 uM
[22] = biological target: [Pyruvate dehydrogenase (acetyl-transferring)] kinase isozyme 2, mitochondrial (Homo sapiens) (UniProt Q15119); assay: PDHK2(h) Millipore kinase panel; conditions: Compound concentration 1.0 uM
[23] = biological target: Protein kinase C alpha type (Homo sapiens) (UniProt P17252); assay: PKCalpha(h) Millipore kinase panel; conditions: Compound concentration 1.0 uM
[24] = biological target: cGMP-dependent protein kinase 1 (Homo sapiens) (UniProt Q13976); assay: PKG1beta(h) Millipore kinase panel; conditions: Compound concentration 1.0 uM
[25] = biological target: Serine/threonine-protein kinase PLK1 (Homo sapiens) (UniProt P53350); assay: Plk1(h) Millipore kinase panel; conditions: Compound concentration 1.0 uM
[26] = biological target: Serine/threonine-protein kinase SIK1 (Homo sapiens) (UniProt P57059); assay: SIK(h) Millipore kinase panel; conditions: Compound concentration 1.0 uM
[27] = biological target: SRSF protein kinase 2 (Homo sapiens) (UniProt P78362); assay: SRPK2(h) Millipore kinase panel; conditions: Compound concentration 1.0 uM
[28] = biological target: Serine/threonine-protein kinase TBK1 (Homo sapiens) (UniProt Q9UHD2); assay: TBK1(h) Millipore kinase panel; conditions: Compound concentration 1.0 uM
[29] = biological target: Dual specificity protein kinase TTK (Homo sapiens) (UniProt P33981); assay: TTK(h) Millipore kinase panel; conditions: Compound concentration 1.0 uM
[30] = biological target: Wee1-like protein kinase 2 (Homo sapiens) (UniProt P0C1S8); assay: Wee1B(h) Millipore kinase panel; conditions: Compound concentration 1.0 uM
[31] = biological target: Tyrosine-protein kinase ZAP-70 (Homo sapiens) (UniProt P43403); assay: ZAP_70(h) Millipore kinase panel; conditions: Compound concentration 1.0 uM
[32] = biological target: CDK6/cyclin D3 (Homo sapiens) (UniProt P30281+Q00534); assay: CDK6/cyclinD3(h) Millipore kinase panel; assay type: protein-complex assay; conditions: Compound concentration 1.0 uM
[33] = biological target: 5-hydroxytryptamine receptor 1E (Homo sapiens) (UniProt P28566); conditions: Compound concentration 10.0 uM
[34] = biological target: T1, Alpha-2C adrenergic receptor (Homo sapiens) (UniProt P18825); conditions: Compound concentration 10.0 uM
T1 sequence (whole entry): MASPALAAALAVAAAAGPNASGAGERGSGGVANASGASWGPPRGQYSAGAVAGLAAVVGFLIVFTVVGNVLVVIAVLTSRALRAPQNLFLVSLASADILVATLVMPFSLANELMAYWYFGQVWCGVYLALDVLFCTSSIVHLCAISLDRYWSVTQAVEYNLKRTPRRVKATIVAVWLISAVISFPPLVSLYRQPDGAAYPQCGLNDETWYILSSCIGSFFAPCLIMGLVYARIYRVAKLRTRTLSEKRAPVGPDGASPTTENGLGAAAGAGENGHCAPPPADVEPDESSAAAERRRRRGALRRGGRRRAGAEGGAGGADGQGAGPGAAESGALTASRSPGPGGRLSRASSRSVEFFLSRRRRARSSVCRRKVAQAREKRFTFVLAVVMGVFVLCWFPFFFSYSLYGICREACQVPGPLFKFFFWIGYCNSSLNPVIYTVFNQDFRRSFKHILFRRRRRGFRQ

[35] = biological target: Beta-1 adrenergic receptor (Homo sapiens) (UniProt P08588); conditions: Compound concentration 10.0 uM
[36] = biological target: Muscarinic acetylcholine receptor M3 (Homo sapiens) (UniProt P20309); conditions: Compound concentration 10.0 uM
[37] = biological target: Glutamate NMDA receptor (Rattus norvegicus) (UniProt P35439+Q00959+Q00960+Q00961+Q62645+Q8VHN2+Q9R1M7); conditions: Compound concentration 10.0 uM
[38] = biological target: Insulin receptor (Homo sapiens) (UniProt P06213); conditions: Rattus norvegicus; Compound concentration 10.0 uM
[39] = biological target: Motilin receptor (Homo sapiens) (UniProt O43193); conditions: Compound concentration 10.0 uM

Epidermal growth factor receptor (Homo sapiens), sequence (P00533 whole entry): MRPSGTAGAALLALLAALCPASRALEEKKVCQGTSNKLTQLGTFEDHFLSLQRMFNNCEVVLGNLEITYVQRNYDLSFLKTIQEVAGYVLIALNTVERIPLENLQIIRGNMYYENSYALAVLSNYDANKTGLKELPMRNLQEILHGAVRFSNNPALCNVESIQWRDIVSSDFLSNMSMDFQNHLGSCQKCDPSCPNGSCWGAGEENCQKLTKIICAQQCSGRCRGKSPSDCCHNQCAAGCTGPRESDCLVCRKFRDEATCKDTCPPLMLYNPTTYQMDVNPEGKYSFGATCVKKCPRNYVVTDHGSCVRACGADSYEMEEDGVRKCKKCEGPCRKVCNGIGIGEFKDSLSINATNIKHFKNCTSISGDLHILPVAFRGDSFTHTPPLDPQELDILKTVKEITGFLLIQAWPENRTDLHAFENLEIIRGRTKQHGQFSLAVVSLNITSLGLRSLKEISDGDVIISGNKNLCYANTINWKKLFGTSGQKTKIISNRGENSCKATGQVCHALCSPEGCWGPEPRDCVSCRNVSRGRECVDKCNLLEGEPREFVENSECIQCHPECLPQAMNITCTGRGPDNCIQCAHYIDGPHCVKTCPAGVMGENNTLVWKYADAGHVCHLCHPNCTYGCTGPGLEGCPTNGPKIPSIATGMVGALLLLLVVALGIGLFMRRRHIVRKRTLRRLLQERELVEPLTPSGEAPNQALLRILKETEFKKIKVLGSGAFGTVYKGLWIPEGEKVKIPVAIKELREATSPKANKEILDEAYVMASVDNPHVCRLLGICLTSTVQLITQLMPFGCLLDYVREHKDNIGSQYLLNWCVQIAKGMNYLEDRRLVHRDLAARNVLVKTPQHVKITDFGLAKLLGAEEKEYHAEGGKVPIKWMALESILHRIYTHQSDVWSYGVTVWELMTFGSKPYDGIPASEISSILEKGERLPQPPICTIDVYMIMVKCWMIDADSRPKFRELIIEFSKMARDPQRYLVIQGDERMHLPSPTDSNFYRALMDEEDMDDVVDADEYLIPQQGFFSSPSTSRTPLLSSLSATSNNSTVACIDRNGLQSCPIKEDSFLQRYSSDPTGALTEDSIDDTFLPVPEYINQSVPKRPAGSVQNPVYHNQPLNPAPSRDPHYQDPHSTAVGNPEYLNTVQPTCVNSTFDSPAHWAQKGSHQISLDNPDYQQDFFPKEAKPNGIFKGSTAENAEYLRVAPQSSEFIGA
Muscarinic acetylcholine receptor M3 (Homo sapiens), sequence (P20309 whole entry, looked up): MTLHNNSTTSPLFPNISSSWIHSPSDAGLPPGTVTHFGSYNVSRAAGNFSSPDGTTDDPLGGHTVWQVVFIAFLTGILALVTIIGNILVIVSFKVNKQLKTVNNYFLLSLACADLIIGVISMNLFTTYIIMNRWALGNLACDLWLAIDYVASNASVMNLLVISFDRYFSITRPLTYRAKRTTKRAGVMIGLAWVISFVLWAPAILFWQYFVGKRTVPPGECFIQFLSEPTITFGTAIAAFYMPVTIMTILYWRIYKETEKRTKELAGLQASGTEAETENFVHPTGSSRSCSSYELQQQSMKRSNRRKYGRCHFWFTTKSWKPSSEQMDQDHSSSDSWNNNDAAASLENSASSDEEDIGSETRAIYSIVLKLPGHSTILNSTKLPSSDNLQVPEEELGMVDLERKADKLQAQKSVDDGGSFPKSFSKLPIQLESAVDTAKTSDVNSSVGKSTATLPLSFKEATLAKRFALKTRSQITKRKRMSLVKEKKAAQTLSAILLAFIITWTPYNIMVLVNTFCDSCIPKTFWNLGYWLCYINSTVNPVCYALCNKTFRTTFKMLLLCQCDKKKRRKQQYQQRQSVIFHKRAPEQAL
Calcium/calmodulin-dependent protein kinase kinase 1 (Homo sapiens), sequence (Q8N5S9 whole entry, looked up): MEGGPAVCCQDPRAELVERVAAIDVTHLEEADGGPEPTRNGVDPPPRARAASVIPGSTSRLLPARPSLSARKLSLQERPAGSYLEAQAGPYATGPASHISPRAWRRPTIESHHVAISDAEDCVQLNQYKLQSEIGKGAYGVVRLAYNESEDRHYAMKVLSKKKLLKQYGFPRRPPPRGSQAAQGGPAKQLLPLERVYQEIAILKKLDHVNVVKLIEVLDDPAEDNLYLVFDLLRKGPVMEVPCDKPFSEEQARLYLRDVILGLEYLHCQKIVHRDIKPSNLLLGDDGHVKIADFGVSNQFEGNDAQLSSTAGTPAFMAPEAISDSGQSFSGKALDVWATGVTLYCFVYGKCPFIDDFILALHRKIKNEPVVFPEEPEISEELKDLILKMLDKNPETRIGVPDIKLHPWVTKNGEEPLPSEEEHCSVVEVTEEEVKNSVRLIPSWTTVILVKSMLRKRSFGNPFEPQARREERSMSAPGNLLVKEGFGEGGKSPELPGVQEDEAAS
Monoamine oxidase A (MAO-A), sequence (P21397 whole entry): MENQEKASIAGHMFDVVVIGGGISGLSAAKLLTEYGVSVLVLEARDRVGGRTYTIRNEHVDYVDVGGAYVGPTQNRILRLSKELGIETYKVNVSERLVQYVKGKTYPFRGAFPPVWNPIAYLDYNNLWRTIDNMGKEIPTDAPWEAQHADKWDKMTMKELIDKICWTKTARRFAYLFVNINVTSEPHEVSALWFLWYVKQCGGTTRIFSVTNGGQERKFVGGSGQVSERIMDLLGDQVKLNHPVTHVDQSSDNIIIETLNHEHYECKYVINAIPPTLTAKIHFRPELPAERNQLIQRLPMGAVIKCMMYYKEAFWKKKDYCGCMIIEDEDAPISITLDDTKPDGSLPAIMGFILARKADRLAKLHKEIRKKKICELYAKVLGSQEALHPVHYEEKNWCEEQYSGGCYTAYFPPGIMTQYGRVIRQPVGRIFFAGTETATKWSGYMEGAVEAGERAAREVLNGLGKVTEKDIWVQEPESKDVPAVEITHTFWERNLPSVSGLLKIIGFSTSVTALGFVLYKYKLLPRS
Tyrosine-protein kinase BTK (Homo sapiens), sequence (Q06187 whole entry): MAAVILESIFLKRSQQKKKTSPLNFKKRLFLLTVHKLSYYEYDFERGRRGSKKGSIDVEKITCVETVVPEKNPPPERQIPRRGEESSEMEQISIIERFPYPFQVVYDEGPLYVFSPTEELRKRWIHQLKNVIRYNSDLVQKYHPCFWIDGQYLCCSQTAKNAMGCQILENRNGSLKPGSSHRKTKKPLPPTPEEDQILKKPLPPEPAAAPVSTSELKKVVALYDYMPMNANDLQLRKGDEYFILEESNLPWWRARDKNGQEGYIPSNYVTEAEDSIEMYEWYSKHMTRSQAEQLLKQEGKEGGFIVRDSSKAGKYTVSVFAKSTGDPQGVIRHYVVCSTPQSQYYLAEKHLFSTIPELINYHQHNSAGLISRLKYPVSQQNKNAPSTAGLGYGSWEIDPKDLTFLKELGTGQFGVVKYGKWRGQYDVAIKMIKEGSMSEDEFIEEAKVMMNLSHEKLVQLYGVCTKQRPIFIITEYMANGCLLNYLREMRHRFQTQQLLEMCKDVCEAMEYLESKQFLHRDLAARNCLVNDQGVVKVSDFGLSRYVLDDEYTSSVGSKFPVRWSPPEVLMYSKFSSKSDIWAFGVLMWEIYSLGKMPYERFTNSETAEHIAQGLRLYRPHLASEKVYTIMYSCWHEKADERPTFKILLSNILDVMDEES
Tyrosine-protein kinase HCK (Homo sapiens), sequence (P08631 2-526 limits assumed): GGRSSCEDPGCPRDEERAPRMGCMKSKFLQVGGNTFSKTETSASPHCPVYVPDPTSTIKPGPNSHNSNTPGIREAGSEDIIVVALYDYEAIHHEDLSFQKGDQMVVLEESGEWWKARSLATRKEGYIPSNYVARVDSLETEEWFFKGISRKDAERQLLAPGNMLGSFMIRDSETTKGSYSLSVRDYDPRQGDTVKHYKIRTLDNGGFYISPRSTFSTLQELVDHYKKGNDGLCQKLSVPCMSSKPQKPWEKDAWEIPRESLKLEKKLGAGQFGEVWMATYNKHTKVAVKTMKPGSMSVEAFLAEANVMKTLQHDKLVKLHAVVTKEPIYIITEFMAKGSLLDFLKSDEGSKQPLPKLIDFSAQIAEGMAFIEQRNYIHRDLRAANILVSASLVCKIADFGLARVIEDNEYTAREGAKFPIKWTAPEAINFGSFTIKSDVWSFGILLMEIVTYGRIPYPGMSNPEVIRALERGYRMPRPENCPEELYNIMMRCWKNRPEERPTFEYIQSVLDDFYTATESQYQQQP
Serine/threonine-protein kinase Chk1 (Homo sapiens), sequence (O14757 whole entry, canonical isoform): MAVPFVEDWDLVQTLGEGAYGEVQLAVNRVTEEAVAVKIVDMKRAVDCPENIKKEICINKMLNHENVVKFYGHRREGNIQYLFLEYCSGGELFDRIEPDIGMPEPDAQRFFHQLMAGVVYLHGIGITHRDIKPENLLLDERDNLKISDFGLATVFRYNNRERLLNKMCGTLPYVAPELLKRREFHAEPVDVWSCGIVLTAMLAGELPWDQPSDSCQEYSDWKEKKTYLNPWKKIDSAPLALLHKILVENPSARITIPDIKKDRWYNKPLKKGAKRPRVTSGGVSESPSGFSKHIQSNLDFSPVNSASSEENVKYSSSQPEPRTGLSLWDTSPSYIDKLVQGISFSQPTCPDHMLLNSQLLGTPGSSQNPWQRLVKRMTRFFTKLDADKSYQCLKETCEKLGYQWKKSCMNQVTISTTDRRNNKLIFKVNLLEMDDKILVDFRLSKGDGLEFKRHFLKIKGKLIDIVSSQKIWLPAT
5-hydroxytryptamine receptor 1E (Homo sapiens), sequence (P28566 whole entry): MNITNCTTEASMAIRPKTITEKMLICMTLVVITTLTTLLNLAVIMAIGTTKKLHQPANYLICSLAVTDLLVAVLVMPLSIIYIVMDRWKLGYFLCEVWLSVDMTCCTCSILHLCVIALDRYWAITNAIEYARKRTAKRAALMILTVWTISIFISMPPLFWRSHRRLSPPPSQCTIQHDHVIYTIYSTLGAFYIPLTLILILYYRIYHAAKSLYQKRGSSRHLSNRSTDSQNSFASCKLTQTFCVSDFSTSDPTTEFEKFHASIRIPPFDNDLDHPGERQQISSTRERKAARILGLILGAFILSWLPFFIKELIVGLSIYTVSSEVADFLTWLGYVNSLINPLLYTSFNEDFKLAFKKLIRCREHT

## CC[C@@H](Nc1c(C#N)c(-c2ccc(-c3cccc(C)c3F)cc2)nc2cnccc12)C(=O)O [BAY-091]
[1]
  inhibition at 60 min, 10 µM: 7% (not active)
[2]
  inhibition: 74%
[3]
  inhibition: -3.68%
[4]
  inhibition: 12.8%
[5]
  inhibition: -7.99%
[6]
  inhibition: 5.03%
Homo sapiens
  inhibition: 3.59%
[7]
  inhibition: -0.03%
[8]
  inhibition: 4.56%
[9]
  inhibition: 8.17%
[10]
  inhibition: 10.8%
[11]
  inhibition: -6.21%
[12]
  inhibition: 3.6%
[13]
  inhibition: -6.26%
[14]
  inhibition: 3.03%
[15]
  inhibition: 8.29%
[16]
  inhibition: 5.8%
[17]
  inhibition: 12.8%
[18]
  inhibition: 0.08%
[19]
  inhibition: 24.4%
[20]
  inhibition: 8.41%
[21]
  inhibition: 4.3%
[22]
  inhibition: 12.4%
[23]
  inhibition: 16.2%
[24]
  inhibition: 8.22%
[25]
  inhibition: 4.29%
[26]
  inhibition: 13.4%
[27]
  inhibition: -8.51%
[28]
  inhibition: 8.44%
[29]
  inhibition: -9.1%
[30]
  inhibition: 9.64%
[31]
  inhibition: 2.99%
[32]
  inhibition: 8.28%
[33]
  inhibition: 17.2%
[34]
  inhibition: -6.87%
[35]
  inhibition: 4.09%
[36]
  inhibition: -8.52%
[37]
  inhibition: -1%
[38]
  inhibition: -1%
[39]
  inhibition: -2%
